Patent US10730863B2, “Bridged bicyclic compounds as farnesoid X receptor modulators” (BRISTOL-MYERS SQUIBB COMPANY, priority 2017, dated 2020)

These compounds were tested against FXR (Homo sapiens (Human), UniProt Q96RI1) (assay: FXR EC50 (FXR agonist activity reported with each example)).
Format: cell-based

FXR, sequence (Q96RI1 262-486): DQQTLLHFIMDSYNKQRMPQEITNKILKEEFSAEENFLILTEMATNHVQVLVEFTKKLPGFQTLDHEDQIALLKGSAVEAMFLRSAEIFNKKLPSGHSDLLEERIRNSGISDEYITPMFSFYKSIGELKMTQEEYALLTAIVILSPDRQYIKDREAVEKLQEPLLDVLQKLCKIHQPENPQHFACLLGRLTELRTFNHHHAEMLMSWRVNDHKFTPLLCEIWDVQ

Compound	EC50
CC(C)Oc1ccc(C(=O)O)c2ccc(C34CCC(OCc5c(-c6c(Cl)cncc6Cl)noc5C5CC5)(CC3)CC4)nc12 [Example 391, 2-(4-((5-cyclopropyl-3-(3,5-dichloropyridin-4-yl)isoxazol-4-yl)methoxy)bicyclo[2.2.2]octan-1-yl)-8-isopropoxyquinoline-5-carboxylic acid]	14 nM
CN1CCN(c2ccc(C(=O)O)c3ccc(C45CCC(OCc6c(-c7c(Cl)cncc7Cl)noc6C6CC6)(CC4)CC5)nc23)CC1 [Example 413]	1500 nM
COc1cc(C(=O)O)nc2ccc(C#CC34CCC(OCc5c(-c6c(Cl)cncc6Cl)noc5C5CC5)(CC3)CC4)cc12 [Example 375]	57 nM
O=C(O)c1cccc2nc(C34CCC(OCc5c(-c6c(Cl)cncc6Cl)noc5C5CC5)(CC3)CC4)sc12 [Example 432, 2-(4-((5-cyclopropyl-3-(3,5-dichloropyridin-4-yl)isoxazol-4-yl)methoxy)bicyclo[2.2.2]octan-1-yl)benzo[d]thiazole-7-carboxylic acid]	23 nM
O=C(O)c1cncc(-c2noc(C34CCC(OCc5c(-c6ccccc6C(F)(F)F)noc5C5CC5)(CC3)CC4)n2)c1 [Example 11, 5-(5-(4-((5-cyclopropyl-3-(2-(trifluoromethyl)phenyl)isoxazol-4-yl)methoxy)bicyclo[2.2.2]octan-1-yl)-1,2,4-oxadiazol-3-yl)nicotinic acid]	2900 nM
O=C(O)c1cccc(NC(=O)C23CCC(C=Cc4c(-c5c(Cl)cccc5Cl)noc4C4CC4)(CC2)CC3)c1Cl [Example 185]	1400 nM
O=C(O)c1ccc(N2CCOCC2)c2nc(C34CCC(OCc5c(-c6c(Cl)cncc6Cl)noc5C5CC5)(CC3)CC4)ccc12 [Example 410, 2-(4-((5-cyclopropyl-3-(3,5-dichloropyridin-4-yl)isoxazol-4-yl)methoxy)bicyclo[2.2.2]octan-1-yl)-8-morpholinoquinoline-5-carboxylic acid]	36 nM
Cc1nc(OCC23CCC(OCc4c(-c5c(Cl)cncc5Cl)noc4C4CC4)(CC2)CC3)sc1C(=O)O [Example 318]	180 nM
O=C(O)c1cccc(-c2noc(C34CCC(COCc5c(-c6c(Cl)cccc6Cl)noc5C5CC5)(CC3)CC4)n2)c1 [Example 151, 3-(5-(4-(((5-cyclopropyl-3-(2,6-dichlorophenyl)isoxazol-4-yl)methoxy)methyl)bicyclo[2.2.2]octan-1-yl)-1,2,4-oxadiazol-3-yl)benzoic acid]	150 nM
O=C(O)c1cccc2cc(OCC34CCC(OCc5c(-c6c(Cl)cncc6Cl)noc5C5CC5)(CC3)CC4)cnc12 [Example 352, 3-((4-((5-cyclopropyl-3-(3,5-dichloropyridin-4-yl)isoxazol-4-yl)methoxy)bicyclo[2.2.2]octan-1-yl)methoxy)quinoline-8-carboxylic acid]	55 nM
COc1ccc(C(=O)O)cc1-c1noc(C23CCC(COCc4c(-c5c(Cl)cncc5Cl)noc4C4CC4)(CC2)CC3)n1 [Example 487, 3-(5-(4-(((5-cyclopropyl-3-(3,5-dichloropyridin-4-yl)isoxazol-4-yl)methoxy)methyl)bicyclo[2.2.2]octan-1-yl)-1,2,4-oxadiazol-3-yl)-4-methoxybenzoic acid]	5400 nM
COc1cncc(Cl)c1-c1noc(C2CC2)c1COC12CCC(COc3ccc4cc(C(=O)O)cc(C5CC5)c4n3)(CC1)CC2 [Example 351, 2-((4-((3-(3-chloro-5-methoxypyridin-4-yl)-5-cyclopropylisoxazol-4-yl)methoxy)bicyclo[2.2.2]octan-1-yl)methoxy)-8-cyclopropylquinoline-6-carboxylic acid]	23 nM
O=C(O)c1cccc(-c2nc(C34CCC(OCc5c(-c6ccccc6C(F)(F)F)noc5C5CC5)(CC3)CC4)no2)n1 [Example 23, 6-(3-(4-((5-cyclopropyl-3-(2-(trifluoromethyl)phenyl)isoxazol-4-yl)methoxy)bicyclo[2.2.2]octan-1-yl)-1,2,4-oxadiazol-5-yl)picolinic acid]	2800 nM
COc1ccc(-c2noc(C34CCC(/C=C/c5c(-c6c(Cl)cncc6Cl)noc5C5CC5)(CC3)CC4)n2)cc1C(=O)O [Example 437, (E)-5-(5-(4-(2-(5-cyclopropyl-3-(3,5-dichloropyridin-4-yl)isoxazol-4-yl)vinyl)bicyclo[2.2.2]octan-1-yl)-1,2,4-oxadiazol-3-yl)-2-methoxybenzoic acid]	23 nM
O=C(O)c1ccc2nc(C34CCC(OCc5c(-c6ccccc6C(F)(F)F)noc5C5CC5)(CC3)CC4)sc2c1 [Example 6, 2-(4-((5-cyclopropyl-3-(2-(trifluoromethyl)phenyl)isoxazol-4-yl)methoxy)bicyclo[2.2.2]octan-1-yl)benzo[d]thiazole-6-carboxylic acid]	4200 nM
CCc1cc(C(=O)O)nc2ccc(OCC34CCC(OCc5c(-c6c(Cl)cncc6Cl)noc5C5CC5)(CC3)CC4)cc12 [Example 347]	24 nM
CCOc1cc(OCC23CCC(OCc4c(-c5ccccc5C(F)(F)F)noc4C4CC4)(CC2)CC3)cnc1C(N)=O [Example 299]	2300 nM

Compound	EC50
CCOc1cc(C(=O)O)nc2ccc(OCC34CCC(OCc5c(-c6c(Cl)cncc6Cl)noc5C5CC5)(CC3)CC4)cc12 [Example 345]	14 nM
O=C(O)c1cc(F)c2nc(C34CCC(OCc5c(-c6ccccc6OC(F)(F)F)noc5C5CC5)(CC3)CC4)sc2c1 [Example 15, 2-(4-((5-cyclopropyl-3-(2-(trifluoromethoxy)phenyl)isoxazol-4-yl)methoxy)bicyclo[2.2.2]octan-1-yl)-4-fluorobenzo[d]thiazole-6-carboxylic acid]	210 nM
COC(=O)c1cccc(-c2noc(C34CCC(C=Cc5c(-c6c(Cl)cccc6Cl)noc5C5CC5)(CC3)CC4)n2)c1 [Intermediate 159F, methyl 3-(5-(4-(2-(5-cyclopropyl-3-(2,6-dichlorophenyl)isoxazol-4-yl)vinyl)bicyclo[2.2.2]octan-1-yl)-1,2,4-oxadiazol-3-yl)benzoate]	4600 nM
O=C(O)c1cccc(-c2nnc(C34CCC(OCc5c(-c6ccccc6OC(F)(F)F)noc5C5CC5)(CC3)CC4)o2)c1 [Example 18, 3-(5-(4-((5-cyclopropyl-3-(2-(trifluoromethoxy)phenyl)isoxazol-4-yl)methoxy)bicyclo[2.2.2]octan-1-yl)-1,3,4-oxadiazol-2-yl)benzoic acid]	1100 nM
COc1cc(Cl)c2nc(C34CCC(OCc5c(-c6c(Cl)cncc6Cl)noc5C5CC5)(CC3)CC4)ccc2c1C(=O)O [Example 426, 8-chloro-2-(4-((5-cyclopropyl-3-(3,5-dichloropyridin-4-yl)isoxazol-4-yl)methoxy)bicyclo[2.2.2]octan-1-yl)-6-methoxyquinoline-5-carboxy c acid]	12 nM
O=C(O)Cc1ccc(/C=C/C23CCC(OCc4c(-c5c(Cl)cncc5Cl)noc4C4CC4)(CC2)CC3)cc1 [Example 516, (E)-2-(4-(2-(4-((5-cyclopropyl-3-(3,5-dichloropyridin-4-yl)isoxazol-4-yl)methoxy)bicyclo[2.2.2]octan-1-yl)vinyl)phenyl)acetic acid]	173 nM
O=C(O)c1ccc(-c2noc(C34CCC(OCc5c(-c6ccccc6C(F)(F)F)noc5C5CC5)(CC3)CC4)n2)cc1 [Example 29]	330 nM
O=C(O)c1cccc2nc(C34CCC(C=Cc5c(-c6ccccc6OC(F)(F)F)noc5C5CC5)(CC3)CC4)sc12 [Example 186]	67 nM
O=C(O)c1cc(-c2noc(C34CCC(/C=C/c5c(-c6c(Cl)cncc6Cl)noc5C5CC5)(CC3)CO4)n2)cc(C(F)(F)F)c1 [Example 478, (E)-3-(5-(4-(2-(5-cyclopropyl-3-(3,5-dichloropyridin-4-yl)isoxazol-4-yl)vinyl)-2-oxabicyclo[2.2.2]octan-1-yl)-1,2,4-oxadiazol-3-yl)-5-(trifluoromethyl)benzoic acid]	120 nM
CS(=O)(=O)NC(=O)c1cc(-c2noc(C34CCC(/C=C/c5c(-c6c(Cl)cncc6Cl)noc5C5CC5)(CC3)CC4)n2)cc(C(F)(F)F)c1 [Example 440, (E)-3-(5-(4-(2-(5-cyclopropyl-3-(3,5-dichloropyridin-4-yl)isoxazol-4-yl)vinyl)bicyclo[2.2.2]octan-1-yl)-1,2,4-oxadiazol-3-yl)-N-(methylsulfonyl)-5-(trifluoromethyl)benzamide]	400 nM
O=C(O)c1ccc2nc(C34CCC(/C=C/c5c(-c6ccccc6OC(F)(F)F)noc5C5CC5)(CC3)CC4)sc2c1 [Example 182, (E)-2-(4-(2-(5-cyclopropyl-3-(2-(trifluoromethoxy)phenyl)isoxazol-4-yl)vinyl)bicyclo[2.2.2]octan-1-yl)benzo[d]thiazole-6-carboxylic acid]	100 nM
O=C(O)c1cc(C#CC23CCC(OCc4c(-c5c(Cl)cncc5Cl)noc4C4CC4)(CC2)CC3)cc2[nH]ncc12 [Example 411]	89 nM
O=C(O)c1cc(OCC23CCC(/C=C/c4c(-c5c(Cl)cncc5Cl)noc4C4CC4)(CC2)CO3)cc(OC(F)F)c1 [Example 499, (E)-3-((4-(2-(5-cyclopropyl-3-(3,5-dichloropyridin-4-yl)isoxazol-4-yl)vinyl)-2-oxabicyclo[2.2.2]octan-1-yl)methoxy)-5-(difluoromethoxy)benzoic acid]	160 nM
Cc1c(OCC23CCC(OCc4c(-c5c(Cl)cccc5Cl)noc4C4CC4)(CC2)CC3)cccc1C(=O)O [Example 95, 3-((4-((5-cyclopropyl-3-(2,6-dichlorophenyl)isoxazol-4-yl)methoxy)bicyclo[2.2.2]octan-1-yl)methoxy)-2-methylbenzoic acid]	400 nM
O=C(O)c1ccc(OC2CCC2)c2nc(OCC34CCC(OCc5c(-c6c(Cl)cncc6Cl)noc5C5CC5)(CC3)CC4)ccc12 [Example 349, 8-cyclobutoxy-2-((4-((5-cyclopropyl-3-(3,5-dichloropyridin-4-yl)isoxazol-4-yl)methoxy)bicyclo[2.2.2]octan-1-yl)methoxy)quinoline-5-carboxylic acid]	130 nM
COc1ccc(-c2noc(C34CCC(OCc5c(-c6c(Cl)cncc6Cl)noc5C5CC5)(CC3)CC4)n2)nc1C(=O)O [Example 253, 6-(5-(4-((5-cyclopropyl-3-(3,5-dichloropyridin-4-yl)isoxazol-4-yl)methoxy)bicyclo[2.2.2]octan-1-yl)-1,2,4-oxadiazol-3-yl)-3-methoxypicolinic acid]	740 nM
